Where “and” joins values, the source holds several entries; their conditions need not be identical. Identical values can stand only once. Like-named read-outs stand apart in the source and are kept apart here.
Columns and labels:
human α-thrombin = human α-thrombin (Homo sapiens, UniProt P00734); assay: Protease inhibition, Ki for human α-thrombin (fluorogenic substrate Z-Gly-Gly-Arg-AMC); format: biochemical; details: for Human alpha thrombin inhibition, slope normalized to DMSO: replicates R1-R3
Procedure: (§1) The inhibition constants (Ki) of cyclic peptides were calculated by measuring thrombin inhibition in the presence of different concentrations of the cyclic peptides. […] Human α-thrombin (Molecular Innovations) and rat α-thrombin (Molecular Innovations) were used at final concentrations of 2 nM and 3 nM, respectively, and fluorogenic substrate (Z-Gly-Gly-Arg-AMC, Bachem) was used at a concentration of 50 μM. Enzymatic activity was determined by measuring fluorescent gain on a Tecan Infinite M200 Pro microplate reader (excitation: 360 nm, emission: 465 nm) or a PHERAstar FSX microplate reader (excitation: 380 nm, emission: 440 nm) for 30 min at 25 °C with a fluorescent readout every 3 min. The two instruments were controlled with Tecan Infinite M200 Pro instrument software (iControl, version 1.12) and PHERAstar FSX software (version 5.70, edition 8), respectively. Protease inhibition was calculated by comparing the enzymatic activity to a control without cyclic peptide.
(§2) Half maximal inhibitory concentration (IC50) values were determined using a four-parameter logistic regression model in GraphPad Prism 9 to fit sigmoidal curves to the acquired data points according to equation (2) below.2 y=b+a−b/1+10^(logIC50−x)p where a and b represent the measured inhibition maximum and minimum, respectively; x is the logarithm of peptide concentration; y is the thrombin activity compared to a control without the cyclic peptide; and p is the Hill coefficient.
(§3) Ki values were calculated using the IC50 and the Cheng–Prusoff equation (equation (3)).3 Ki=IC50/1+S0/Km where Km is the Michaelis–Menten constant of the enzyme for the substrate used in the assay, and [S]0 is the initial substrate concentration.

rat α-thrombin = target: T1, rat α-thrombin (Rattus norvegicus, UniProt P18292); assay: Protease inhibition, Ki for rat α-thrombin (fluorogenic substrate Z-Gly-Gly-Arg-AMC); format: biochemical; details: for Rat alpha thrombin inhibition, slope normalized to DMSO: replicates R1-R3
T1 construct: rat α-thrombin (Molecular Innovations) were used at final concentrations of 2 nM and 3 nM; purchased Molecular Innovations
Procedure: as §1, §2, §3

[1] = Passive artificial membrane permeability (PAMPA);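 for Permeability% Average: top well sample relative to theoretical equilibrium sample by TIC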
[2] = peptide concentration 1.00E+02 uM
[3] = peptide concentration 1.19E-05 uM
[4] = peptide concentration 1.22E-02 uM
[5] = peptide concentration 1.25E+01 uM
[6] = peptide concentration 1.53E-03 uM
[7] = peptide concentration 1.56E+00 uM
[8] = peptide concentration 1.91E-04 uM
[9] = peptide concentration 1.95E-01 uM
[10] = peptide concentration 2.38E-05 uM
[11] = peptide concentration 2.44E-02 uM
[12] = peptide concentration 2.50E+01 uM
[13] = peptide concentration 3.05E-03 uM
[14] = peptide concentration 3.12E+00 uM
[15] = peptide concentration 3.81E-04 uM
[16] = peptide concentration 3.91E-01 uM
[17] = peptide concentration 4.77E-05 uM
[18] = peptide concentration 4.88E-02 uM
[19] = peptide concentration 5.00E+01 uM
[20] = peptide concentration 6.10E-03 uM
[21] = peptide concentration 6.25E+00 uM
[22] = peptide concentration 7.63E-04 uM
[23] = peptide concentration 7.81E-01 uM
[24] = peptide concentration 9.54E-05 uM
[25] = peptide concentration 9.77E-02 uM

O=C1C[C@H]2CCCN2C(=O)[C@H](Cc2ccccc2)NC(=O)[C@@H](NC(=O)c2ccc(Cl)s2)CCCC=CCCCCN1 [compound 44]
Ki (human α-thrombin; average of R1-R3, read-out: Human alpha thrombin inhibition, Ki Average): 1160 nM | Human alpha thrombin inhibition, slope normalized to DMSO (human α-thrombin; [2]): 21.2 and 22.5 and 13.5 | Human alpha thrombin inhibition, slope normalized to DMSO (human α-thrombin; [3]): 107.9 and 108.1 and 100.7 | Human alpha thrombin inhibition, slope normalized to DMSO (human α-thrombin; [4]): 45.0 and 106.0 and 79.1 | Human alpha thrombin inhibition, slope normalized to DMSO (human α-thrombin; [5]): 20.5 and 29.2 and 28.2 | Human alpha thrombin inhibition, slope normalized to DMSO (human α-thrombin; [6]): 70.8 and 98.2 and 101.6 | Human alpha thrombin inhibition, slope normalized to DMSO (human α-thrombin; [7]): 57.8 and 72.9 and 62.5 | Human alpha thrombin inhibition, slope normalized to DMSO (human α-thrombin; [8]): 100.2 and 106.6 and 100.4 | Human alpha thrombin inhibition, slope normalized to DMSO (human α-thrombin; [9]): 100.6 and 90.9 and 89.3 | Human alpha thrombin inhibition, slope normalized to DMSO (human α-thrombin; [10]): 109.7 and 103.6 and 106.2 | Human alpha thrombin inhibition, slope normalized to DMSO (human α-thrombin; [11]): 86.3 and 104.2 and 79.8 | Human alpha thrombin inhibition, slope normalized to DMSO (human α-thrombin; [12]): 13.8 and 27.1 and 20.7 | Human alpha thrombin inhibition, slope normalized to DMSO (human α-thrombin; [13]): 101.3 and 97.0 and 101.4 | Human alpha thrombin inhibition, slope normalized to DMSO (human α-thrombin; [14]): 19.7 and 40.6 and 23.4 | Human alpha thrombin inhibition, slope normalized to DMSO (human α-thrombin; [15]): 71.5 and 115.8 and 100.2 | Human alpha thrombin inhibition, slope normalized to DMSO (human α-thrombin; [16]): 64.9 and 85.6 and 86.8 | Human alpha thrombin inhibition, slope normalized to DMSO (human α-thrombin; [17]): 107.4 and 99.0 and 99.6 | Human alpha thrombin inhibition, slope normalized to DMSO (human α-thrombin; [18]): 103.0 and 102.1 and 95.7 | Human alpha thrombin inhibition, slope normalized to DMSO (human α-thrombin; [19]): 20.6 and 21.0 and 15.4 | Human alpha thrombin inhibition, slope normalized to DMSO (human α-thrombin; [20]): 86.7 and 105.1 and 95.4 | Human alpha thrombin inhibition, slope normalized to DMSO (human α-thrombin; [21]): 41.3 and 33.5 and 28.3 | Human alpha thrombin inhibition, slope normalized to DMSO (human α-thrombin; [22]): 100.0 and 108.8 and 108.6 | Human alpha thrombin inhibition, slope normalized to DMSO (human α-thrombin; [23]): 74.4 and 82.4 and 81.1 | Human alpha thrombin inhibition, slope normalized to DMSO (human α-thrombin; [24]): 104.7 and 102.3 and 88.7 | Human alpha thrombin inhibition, slope normalized to DMSO (human α-thrombin; [25]): 98.8 and 95.6 and 95.8 | IC50 (human α-thrombin; single replicates R1-R3, read-out: Human alpha thrombin inhibition, IC50): 1300 nM and 1670 nM and 1530 nM | Ki (human α-thrombin; single replicates R1-R3, read-out: Human alpha thrombin inhibition, Ki): 1 µM (2×) and 1.29 µM (2×) and 1.18 µM (2×) | Ki (rat α-thrombin; average of R1-R3, read-out: Rat alpha thrombin inhibition, Ki Average): 252 nM | Rat alpha thrombin inhibition, slope normalized to DMSO (rat α-thrombin; [2]): 7.5 and 5.2 and 7.4 | Rat alpha thrombin inhibition, slope normalized to DMSO (rat α-thrombin; [3]): 101.0 and 99.4 and 101.8 | Rat alpha thrombin inhibition, slope normalized to DMSO (rat α-thrombin; [4]): 100.6 and 96.9 and 105.9 | Rat alpha thrombin inhibition, slope normalized to DMSO (rat α-thrombin; [5]): 11.6 and 13.6 and 8.8 | Rat alpha thrombin inhibition, slope normalized to DMSO (rat α-thrombin; [6]): 110.9 and 102.8 and 91.9 | Rat alpha thrombin inhibition, slope normalized to DMSO (rat α-thrombin; [7]): 29.5 and 31.9 and 33.8 | Rat alpha thrombin inhibition, slope normalized to DMSO (rat α-thrombin; [8]): 101.7 (2×) and 104.1 | Rat alpha thrombin inhibition, slope normalized to DMSO (rat α-thrombin; [9]): 57.9 and 68.0 and 74.9 | Rat alpha thrombin inhibition, slope normalized to DMSO (rat α-thrombin; [10]): 95.3 and 93.1 and 98.0 | Rat alpha thrombin inhibition, slope normalized to DMSO (rat α-thrombin; [11]): 87.6 and 90.4 and 103.1 | Rat alpha thrombin inhibition, slope normalized to DMSO (rat α-thrombin; [12]): 10.8 and 13.8 and 2.6 | Rat alpha thrombin inhibition, slope normalized to DMSO (rat α-thrombin; [13]): 84.4 and 99.6 and 89.5 | Rat alpha thrombin inhibition, slope normalized to DMSO (rat α-thrombin; [14]): 19.8 and 21.4 and 23.1 | Rat alpha thrombin inhibition, slope normalized to DMSO (rat α-thrombin; [15]): 100.0 and 99.2 and 101.2 | Rat alpha thrombin inhibition, slope normalized to DMSO (rat α-thrombin; [16]): 59.7 and 45.3 and 63.3 | Rat alpha thrombin inhibition, slope normalized to DMSO (rat α-thrombin; [17]): 96.9 and 93.8 and 94.4 | Rat alpha thrombin inhibition, slope normalized to DMSO (rat α-thrombin; [18]): 85.6 and 100.2 and 83.3 | Rat alpha thrombin inhibition, slope normalized to DMSO (rat α-thrombin; [19]): 7.6 and 10.7 and 9.3 | Rat alpha thrombin inhibition, slope normalized to DMSO (rat α-thrombin; [20]): 100.9 and 96.3 and 102.1 | Rat alpha thrombin inhibition, slope normalized to DMSO (rat α-thrombin; [21]): 12.6 and 18.3 and 16.4 | Rat alpha thrombin inhibition, slope normalized to DMSO (rat α-thrombin; [22]): 96.9 and 104.7 and 92.6 | Rat alpha thrombin inhibition, slope normalized to DMSO (rat α-thrombin; [23]): 48.7 and 32.2 and 42.2 | Rat alpha thrombin inhibition, slope normalized to DMSO (rat α-thrombin; [24]): 95.8 and 96.9 and 102.0 | Rat alpha thrombin inhibition, slope normalized to DMSO (rat α-thrombin; [25]): 78.0 and 74.1 and 90.2 | IC50 (rat α-thrombin; single replicates R1-R3, read-out: Rat alpha thrombin inhibition, IC50): 451 nM and 308 nM and 605 nM | Ki (rat α-thrombin; single replicates R1-R3, read-out: Rat alpha thrombin inhibition, Ki): 250 nM (2×) and 171 nM (2×) and 335 nM (2×) | PAMPA permeability: % permeability ([1]; 50 μM, 12–18 h, acceptor concentration relative to equilibrium): 48 ± 19% | Permeability% (single replicates R1–R3) ([1]; 50 μM, 13 h (Fig. 5d)): 26.09% and 53.35% and 63.35% | Permeability% Average ([1]; 50 μM, 13 h (Fig. 5d)): 47.6% | Papp at 50 μM ([1]; PAMPA, pH 7.4): 5.62 ×10⁻⁶ cm/s

Reference: article PMC11062899, “De novo development of small cyclic peptides that are orally bioavailable” (Nature Chemical Biology, 2023)
